We go through one molecule from patent EP1944294A1, “Gamma-polymorph of a substituted pyrazoline, its preparation and use as medicaments” (Laboratorios del Dr. Esteve S.A., priority 2007, dated 2008).

The target in this assay is recombinant human cannabinoid 1 receptor (CB1) (Homo sapiens, UniProt P21554). As to conditions: compound at 1 µM; 100 % = difference between maximal effect of WIN 55,212-2 alone and WIN 55,212-2 plus Rimonabant (1 µM).
Chain of recombinant human cannabinoid 1 receptor (CB1) (P21554 whole entry): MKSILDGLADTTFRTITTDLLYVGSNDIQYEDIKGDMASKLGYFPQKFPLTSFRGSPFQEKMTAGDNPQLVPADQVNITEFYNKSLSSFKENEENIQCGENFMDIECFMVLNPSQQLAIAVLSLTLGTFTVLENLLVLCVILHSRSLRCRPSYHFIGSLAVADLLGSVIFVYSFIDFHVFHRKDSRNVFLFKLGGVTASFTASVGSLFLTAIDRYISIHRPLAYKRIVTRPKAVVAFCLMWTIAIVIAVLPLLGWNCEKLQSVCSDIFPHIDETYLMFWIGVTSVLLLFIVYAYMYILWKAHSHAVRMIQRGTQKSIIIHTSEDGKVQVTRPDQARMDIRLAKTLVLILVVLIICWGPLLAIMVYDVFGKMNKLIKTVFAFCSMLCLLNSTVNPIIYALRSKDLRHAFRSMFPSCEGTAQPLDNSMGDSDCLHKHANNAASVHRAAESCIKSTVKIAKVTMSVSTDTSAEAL

Experimental: Chinese hamster ovary (CHO) cells stably expressing recombinant human cannabinoid 1 receptor (CB1) are cultured in nutrient mixture Ham's F 12 supplemented with 10 % heat-inactivated fetal bovine serum, 2 mM L-glutamine, 50 U/ml penicillin, 50 U/ml streptomycin and 0.5 mg/ml geneticin. In order to obtain cells, culture flasks are washed twice with phosphate buffered saline and scraped. Then, cells are collected by centrifugation (200 x g, 10 min) and stored dry at -80°C. Cells are homogenized in ice-cold 20 mM HEPES, 10 mM EDTA (pH 7.5) and centrifuged at 40,000 x g for 15 min at 4°C. The membrane pellet is resuspended in 20 mM HEPES, 0.1 1 mM EDTA (pH 7.5) and centrifuged for 15 min at 4°C. The final membrane pellet is resuspended in 20 mM HEPES, 0.1 1 mM EDTA (pH 7.5), and divided in aliquots and stored at -80°C until use.
The reaction is performed in 96-well plates. Membranes (15 µg protein/well) are incubated for 60 min at 30 °C in buffer (50 mM HEPES, 100 mM KCI, 5 mM MgCl2,1 mM EDTA, 0.1 % wt/vol bovine serum albumin, 5 µM GDP, saponin (10 µg/ml), 0.5 nM [^35S]GTPγS, pH 7.4) with compound at a final concentration of 1 µM in either the absence or presence of agonist WIN 55,212-2 between 3 nM and 3 µM. […] Radioactivity is determined using a Wallac Microbeta Trilux. […]

With `O=C(NN1CCCCC1)C1=NN(c2ccc(Cl)cc2Cl)[C@@H](c2ccc(Cl)cc2)C1` [Compound A, (R)-N-piperidinyl-5-(4-chlorophenyl)-1-(2,4-dichlorophenyl)-4,5-dihydro-1H-pyrazole-3-carboxamide], the Antagonism is reported as 106%.
